Results reported in PubChem BioAssay AID2060888 (Molecular Pharmacology Branch, DTP, NCI, 2025).

Tested on: 695427-040-R-J1-PDC complex spheroid viability
Experiment: Anticancer human tumor 695427-040-R-J1-PDC patient-derived colon adenocarcinoma cell line growth inhibition [RAS]
Settings: for viability, T/C: stronger effect = lower value; active = viability on the fitted dose curve at most 10% of control; inactive = the rest
Outline: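 Agents were tested in combination matrices in half-log decrements from a top concentration at or near clinical Cmax (10 microM if undetermined). Targets were multi-cell spheroids of tumour lines plus HUVEC and MSC stromal cells.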
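Note: viability read after seven days of drug exposure.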
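Throughout, for viability, T/C: 100% = DMSO vehicle control viability.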

CCc1c2c(nc3ccc(O)cc13)-c1cc3c(c(=O)n1C2)COC(=O)[C@]3(O)CC + CCn1c(-c2cc(N3CCN(C)CC3)cnc2C(C)OC)c2c3cc(ccc31)-c1csc(n1)CC(NC(=O)C1CC1C)C(=O)N1CCCC(N1)C(=O)OCC(C)(C)C2
inactive: viability, T/C (second compound 0.000949 µM, first compound 0.000949 µM) 88.8% | viability, T/C (second compound 0.000949 µM, first compound 0.003 µM) 87% | viability, T/C (second compound 0.000949 µM, first compound 0.00949 µM) 75.6% | viability, T/C (second compound 0.000949 µM, first compound 0.03 µM) 61.8% | viability, T/C (second compound 0.000949 µM, first compound 0.0949 µM) 55.4% | viability, T/C (second compound 0.000949 µM, first compound 0.3 µM) 33.7% | viability, T/C (second compound 0.003 µM, first compound 0.000949 µM) 103% | viability, T/C (second compound 0.003 µM, first compound 0.003 µM) 86.1% | viability, T/C (second compound 0.003 µM, first compound 0.00949 µM) 66% | viability, T/C (second compound 0.003 µM, first compound 0.03 µM) 63.6% | viability, T/C (second compound 0.003 µM, first compound 0.0949 µM) 48% | viability, T/C (second compound 0.003 µM, first compound 0.3 µM) 36.3% | viability, T/C (second compound 0.00949 µM, first compound 0.000949 µM) 82.3% | viability, T/C (second compound 0.00949 µM, first compound 0.003 µM) 64% | viability, T/C (second compound 0.00949 µM, first compound 0.00949 µM) 65% | viability, T/C (second compound 0.00949 µM, first compound 0.03 µM) 57.8% | viability, T/C (second compound 0.00949 µM, first compound 0.0949 µM) 50% | viability, T/C (second compound 0.00949 µM, first compound 0.3 µM) 26.6% | viability, T/C (second compound 0.03 µM, first compound 0.000949 µM) 59.2% | viability, T/C (second compound 0.03 µM, first compound 0.003 µM) 51.6% | viability, T/C (second compound 0.03 µM, first compound 0.00949 µM) 55.3% | viability, T/C (second compound 0.03 µM, first compound 0.03 µM) 35.3% | viability, T/C (second compound 0.03 µM, first compound 0.0949 µM) 41.6% | viability, T/C (second compound 0.03 µM, first compound 0.3 µM) 27.9% | viability, T/C (second compound 0.0949 µM, first compound 0.000949 µM) 45.2% | viability, T/C (second compound 0.0949 µM, first compound 0.003 µM) 41.7% | viability, T/C (second compound 0.0949 µM, first compound 0.00949 µM) 46.7% | viability, T/C (second compound 0.0949 µM, first compound 0.03 µM) 31.8% | viability, T/C (second compound 0.0949 µM, first compound 0.0949 µM) 30.7% | viability, T/C (second compound 0.0949 µM, first compound 0.3 µM) 20.5% | viability, T/C (second compound 0.3 µM, first compound 0.000949 µM) 38.1% | viability, T/C (second compound 0.3 µM, first compound 0.003 µM) 37.6% | viability, T/C (second compound 0.3 µM, first compound 0.00949 µM) 28.2% | viability, T/C (second compound 0.3 µM, first compound 0.03 µM) 30.8% | viability, T/C (second compound 0.3 µM, first compound 0.0949 µM) 23.8% | viability, T/C (second compound 0.3 µM, first compound 0.3 µM) 16.9%
107 nM: IC50 (curve of first compound, second compound 0.000949 µM)
7.69 nM: IC50 (curve of first compound, second compound 0.03 µM)
73.2 nM: IC50 (curve of first compound, second compound 0.003 µM)
< 0.949 nM: IC50 (curve of first compound, second compound 0.0949 µM) | IC50 (curve of first compound, second compound 0.3 µM)
56.8 nM: IC50 (curve of first compound, second compound 0.00949 µM)

CCN1CCN(Cc2ccc(Nc3ncc(F)c(-c4cc(F)c5nc(C)n(C(C)C)c5c4)n3)nc2)CC1 + C=CC(=O)N1CCN(c2nc(OCC3CCCN3C)nc3c(F)c(-c4nc(N)cc(C)c4C(F)(F)F)c(Cl)cc23)C(C)C1
inactive: viability, T/C (second compound 0.00316 µM, first compound 0.00316 µM) 93% | viability, T/C (second compound 0.00316 µM, first compound 0.01 µM) 88.4% | viability, T/C (second compound 0.00316 µM, first compound 0.0316 µM) 88.5% | viability, T/C (second compound 0.00316 µM, first compound 0.1 µM) 88.8% | viability, T/C (second compound 0.00316 µM, first compound 0.316 µM) 101% | viability, T/C (second compound 0.00316 µM, first compound 1 µM) 103% | viability, T/C (second compound 0.01 µM, first compound 0.00316 µM) 107% | viability, T/C (second compound 0.01 µM, first compound 0.01 µM) 92.2% | viability, T/C (second compound 0.01 µM, first compound 0.0316 µM) 94.1% | viability, T/C (second compound 0.01 µM, first compound 0.1 µM) 92.4% | viability, T/C (second compound 0.01 µM, first compound 0.316 µM) 101% | viability, T/C (second compound 0.01 µM, first compound 1 µM) 108% | viability, T/C (second compound 0.0316 µM, first compound 0.00316 µM) 106% | viability, T/C (second compound 0.0316 µM, first compound 0.01 µM) 96.3% | viability, T/C (second compound 0.0316 µM, first compound 0.0316 µM) 95.3% | viability, T/C (second compound 0.0316 µM, first compound 0.1 µM) 91.6% | viability, T/C (second compound 0.0316 µM, first compound 0.316 µM) 109% | viability, T/C (second compound 0.0316 µM, first compound 1 µM) 105% | viability, T/C (second compound 0.1 µM, first compound 0.00316 µM) 89% | viability, T/C (second compound 0.1 µM, first compound 0.01 µM) 102% | viability, T/C (second compound 0.1 µM, first compound 0.0316 µM) 90.3% | viability, T/C (second compound 0.1 µM, first compound 0.1 µM) 92.1% | viability, T/C (second compound 0.1 µM, first compound 0.316 µM) 107% | viability, T/C (second compound 0.1 µM, first compound 1 µM) 110% | viability, T/C (second compound 0.316 µM, first compound 0.00316 µM) 95.5% | viability, T/C (second compound 0.316 µM, first compound 0.01 µM) 94.3% | viability, T/C (second compound 0.316 µM, first compound 0.0316 µM) 96.7% | viability, T/C (second compound 0.316 µM, first compound 0.1 µM) 94.7% | viability, T/C (second compound 0.316 µM, first compound 0.316 µM) 101% | viability, T/C (second compound 0.316 µM, first compound 1 µM) 97% | viability, T/C (second compound 1 µM, first compound 0.00316 µM) 94.8% | viability, T/C (second compound 1 µM, first compound 0.01 µM) 85.6% | viability, T/C (second compound 1 µM, first compound 0.0316 µM) 93.7% | viability, T/C (second compound 1 µM, first compound 0.1 µM) 96.6% | viability, T/C (second compound 1 µM, first compound 0.316 µM) 99% | viability, T/C (second compound 1 µM, first compound 1 µM) 94.8%
> 1000 nM: IC50 (curve of first compound, second compound 0.00316 µM) | IC50 (curve of first compound, second compound 0.01 µM) | IC50 (curve of first compound, second compound 0.0316 µM) | IC50 (curve of first compound, second compound 0.1 µM) | IC50 (curve of first compound, second compound 0.316 µM) | IC50 (curve of first compound, second compound 1 µM)

Cc1nc(N2CCC3(CC2)COC(C)C3N)c(CO)nc1Sc1ccnc(N)c1Cl (stereo unspecified)
> 10000 nM: IC50 (curve of compound)
inactive: viability, T/C (compound 0.0316 µM) 87% [middle of 4 runs] | viability, T/C (compound 0.1 µM) 85.2% [middle of 4 runs] | viability, T/C (compound 0.316 µM) 73.3% [middle of 4 runs] | viability, T/C (compound 1 µM) 76.3% [middle of 4 runs] | viability, T/C (compound 3.16 µM) 65.7% [middle of 4 runs] | viability, T/C (compound 10 µM) 59.8% [middle of 4 runs]
